The source made the active and inactive calls. The calls are words filed in the database; no cut-off is given here. Positions of bridges follow the written chain, without caps; N, C: chain ends. Residues, ends and D or L forms follow the SMILES beside them.
What was measured:
[1] = Cytotoxicity against human NFF cells assessed as survivality at 2 uM after 3 days by SRB assay; type: cell-based; conditions: read-out: Survival
[2] = Toxicity in human erythrocytes assessed as hemolytic activity up to 50 uM after 1 hr; type: cell-based; conditions: erythrocyte
[3] = Inhibition of trypsin at 0.04 to 0.5 uM by UV-visible spectrophotometer
Helicoverpa armigera = test: Insecticidal activity against Helicoverpa armigera larvae assessed as decrease in weight at 0.825 umol after 96 hrs; type: functional, organism-based
[4] = Cytotoxicity against human NFF cells assessed as survivality at 1.3 uM after 3 days by SRB assay; type: cell-based; conditions: read-out: Survival
MM96L [5] = test: Cytotoxicity against human MM96L cells assessed as survivality at 1.3 uM after 3 days by SRB assay; type: functional; conditions: 72 h, read-out: Survival
MM96L [6] = test: Cytotoxicity against human MM96L cells assessed as survivality at 2 uM after 3 days by SRB assay; type: functional; conditions: 72 h, read-out: Survival

In the case of CC[C@H](C)[C@@H]1NC(=O)CNC(=O)[C@H](C(C)C)NC(=O)CNC(=O)[C@@H]2CCCN2C(=O)[C@H]([C@@H](C)O)NC(=O)[C@H](C(C)C)NC(=O)[C@H]([C@@H](C)O)NC(=O)[C@@H]2CCCN2C(=O)[C@H](Cc2c[nH]c3ccccc23)NC(=O)[C@@H]2CSSC[C@@H]3NC(=O)[C@H](CCC(N)=O)NC(=O)[C@H](CCCCN)NC(=O)CNC(=O)[C@H](CCC(=O)O)NC(=O)[C@@H](NC(=O)CN)CSSC[C@H](NC(=O)CNC(=O)CNC(=O)CNC(=O)[C@H](CSSC[C@@H](C(=O)N[C@@H](CO)C(=O)N[C@@H](CO)C(=O)N[C@@H](CO)C(=O)O)NC1=O)NC(=O)[C@H](CO)NC(=O)[C@H](CCCNC(=N)N)NC(=O)[C@H](Cc1ccccc1)NC(=O)[C@H](CC(C)C)NC(=O)CNC3=O)C(=O)N[C@@H](CCCNC(=N)N)C(=O)N2 [listing 1 of 2 here], the viability at 72 h, 2 µM [1] is reported as 89% and the Activity [2] is reported as “Non-toxic”.

In the case of CC[C@H](C)[C@@H]1NC(=O)CNC(=O)[C@H](C(C)C)NC(=O)CNC(=O)[C@@H]2CCCN2C(=O)[C@H]([C@@H](C)O)NC(=O)[C@H](C(C)C)NC(=O)[C@H]([C@@H](C)O)NC(=O)[C@@H]2CCCN2C(=O)[C@H](Cc2c[nH]c3ccccc23)NC(=O)[C@@H]2CSSC[C@@H]3NC(=O)[C@H](CCC(N)=O)NC(=O)[C@H](CCCCN)NC(=O)CNC(=O)[C@H](CCC(=O)O)NC(=O)[C@@H](NC(=O)CN)CSSC[C@H](NC(=O)CNC(=O)CNC(=O)CNC(=O)[C@H](CSSC[C@H](C(=O)N[C@@H](CO)C(=O)N[C@@H](CO)C(=O)N[C@@H](CO)C(=O)O)NC1=O)NC(=O)[C@H](CO)NC(=O)[C@H](CCCNC(=N)N)NC(=O)[C@H](Cc1ccccc1)NC(=O)[C@H](CC(C)C)NC(=O)CNC3=O)C(=O)N[C@@H](CCCNC(=N)N)C(=O)N2, the inhibition [3] is reported as “inactive” and the Activity (Helicoverpa armigera) is reported as “inactive”.

Work on CC[C@H](C)[C@@H]1NC(=O)CNC(=O)[C@H](C(C)C)NC(=O)CNC(=O)[C@@H]2CCCN2C(=O)[C@H]([C@@H](C)O)NC(=O)[C@H](C(C)C)NC(=O)[C@H]([C@@H](C)O)NC(=O)[C@@H]2CCCN2C(=O)[C@H](Cc2c[nH]c3ccccc23)NC(=O)[C@@H]2CSSC[C@@H]3NC(=O)[C@@H]4CCCN4C(=O)[C@H](CCCCN)NC(=O)CNC(=O)[C@H](CCC(=O)O)NC(=O)[C@@H](NC(=O)CN)CSSC[C@H](NC(=O)CNC(=O)CNC(=O)CNC(=O)[C@H](CSSC[C@@H](C(=O)N[C@@H](CO)C(=O)N[C@@H](CO)C(=O)N[C@@H](CO)C(=O)O)NC1=O)NC(=O)[C@H](CO)NC(=O)[C@H](CCCNC(=N)N)NC(=O)[C@H](Cc1ccccc1)NC(=O)[C@H](CC(C)C)NC(=O)CNC3=O)C(=O)N[C@@H](CCCNC(=N)N)C(=O)N2 (H-GCEGKPCGLFRSCGGGCRCWPTVTPGVGICSSS-OH; disulfide 2-17, 7-19, 13-30) yielded a viability at 72 h, 1.3 µM [4] of 86% and a viability at 1.3 µM (MM96L [5]) of 51%.

In the case of CC[C@H](C)[C@@H]1NC(=O)CNC(=O)[C@H](C(C)C)NC(=O)CNC(=O)[C@@H]2CCCN2C(=O)[C@H]([C@@H](C)O)NC(=O)[C@H](C(C)C)NC(=O)[C@H]([C@@H](C)O)NC(=O)[C@@H]2CCCN2C(=O)[C@H](Cc2c[nH]c3ccccc23)NC(=O)[C@@H]2CSSC[C@@H]3NC(=O)[C@H](CCC(N)=O)NC(=O)[C@H](CCCCN)NC(=O)CNC(=O)[C@H](CCC(=O)O)NC(=O)[C@@H](NC(=O)CN)CSSC[C@H](NC(=O)CNC(=O)CNC(=O)CNC(=O)[C@H](CSSC[C@@H](C(=O)N[C@@H](CO)C(=O)N[C@@H](CO)C(=O)N[C@@H](CO)C(=O)O)NC1=O)NC(=O)[C@H](CO)NC(=O)[C@H](CCCNC(=N)N)NC(=O)[C@H](Cc1ccccc1)NC(=O)[C@H](CC(C)C)NC(=O)CNC3=O)C(=O)N[C@@H](CCCNC(=N)N)C(=O)N2 [listing 2 of 2 here], the viability at 2 µM (MM96L [6]) is reported as 57%.
